Laboratory results taken from US7365160B2, “Mutated constitutively active nuclear orphan receptor” (The United States of America as represented by the …, priority 2002, dated 2008).

What was measured:
mCART350M = biological target: T1, mCART350M (Mus musculus, UniProt O35627, T350M); experiment: luciferase reporter assay in HepG2 cells, mutant mCART350M; assay type: cell-based
T1 construct: mCAR and hCAR expression vectors were constructed by cloning an entire mCAR; expressed in transfected cells; host or cells: HepG2
T1 sequence (O35627 1-358 T350M): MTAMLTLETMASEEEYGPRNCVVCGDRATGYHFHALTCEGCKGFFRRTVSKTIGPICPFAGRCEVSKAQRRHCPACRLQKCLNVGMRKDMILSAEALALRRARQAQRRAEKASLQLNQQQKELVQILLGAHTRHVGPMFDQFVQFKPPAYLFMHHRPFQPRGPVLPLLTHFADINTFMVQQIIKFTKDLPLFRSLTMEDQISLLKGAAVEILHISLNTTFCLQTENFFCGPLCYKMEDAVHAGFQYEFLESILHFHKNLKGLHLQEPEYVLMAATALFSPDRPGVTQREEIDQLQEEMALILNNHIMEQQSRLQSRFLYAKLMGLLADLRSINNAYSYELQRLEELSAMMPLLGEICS
Method: The transfected cells were then treated, and luciferase assays performed as described in EXAMPLE 1.
To determine if this effect could be disrupted by mutating Thr350 to a Met, the mCART350M mutant described in EXAMPLE 2 was used. The KN-62 repression was examined with and without the co-expression of SRC-1 (EXAMPLE 3).

mCAR [1] = biological target: T2, mCAR (Mus musculus, UniProt O35627); experiment: cell-based transfection assay, (NR1)5-tk-luciferase reporter in HepG2 cells, wild-type mCAR; conditions: for degree of repression: not affected by the mutation of Thr350
T2 construct: mCAR and hCAR expression vectors were constructed by cloning an entire mCAR; expressed in transfected cells; host or cells: HepG2
T2 sequence (O35627 1-358): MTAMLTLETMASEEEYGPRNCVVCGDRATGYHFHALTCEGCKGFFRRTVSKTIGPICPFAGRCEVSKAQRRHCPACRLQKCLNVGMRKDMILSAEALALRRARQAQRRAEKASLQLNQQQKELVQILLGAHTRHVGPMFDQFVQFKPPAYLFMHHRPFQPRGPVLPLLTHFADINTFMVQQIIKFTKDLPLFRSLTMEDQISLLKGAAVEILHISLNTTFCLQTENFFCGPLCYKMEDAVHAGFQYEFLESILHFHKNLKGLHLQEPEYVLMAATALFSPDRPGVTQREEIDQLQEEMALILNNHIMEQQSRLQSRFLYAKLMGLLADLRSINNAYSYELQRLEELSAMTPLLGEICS
Source text: mCAR and hCAR expression vectors were constructed by cloning an entire mCAR (GenBank Accession No: AF009327, deposited on Jul. 22, 1997; SEQ ID NO: 15) or hCAR (GenBank Accession No: Z30425, deposited on Mar. 8, 1994; SEQ ID NO: 17) coding sequence into BamHI and XhoI sites of pCR3 plasmid as described previously (Sueyoshi et al., J Biol Chem 274:6043-6, 1999). Polymerase chain reaction (PCR) was used to amplify the desired hCAR or mCAR fragment from the plasmid. The amplified fragments used for the chimeras were nucleotides encoding amino acids: 1 to 86 of mCAR and 77 to 348 of hCAR (mhh), 1 to 116 of mCAR and 107 to 348 of hCAR (mmh), 1 to 76 of hCAR and 87 to 358 of mCAR (hmm), 1 to 106 of hCAR and 117 to 358 of mCAR (hhm). These fragments were PCR amplified using pfu polymerase and enzymatically phosphorylated primers. The amplified fragments were ligated, and a second PCR amplification was performed on the ligated DNA with the primers for 5′ and 3′ end of the chimeric DNA. The resulting second PCR products were cloned into a pCR3 vector (Invitrogen) with newly created BamHI and XhoI sites at the 5′ and the 3′ ends, respectively.
A mouse SRC-1 cDNA corresponding to amino acid residues 633 to 1450 of SRC-1 (GenBank Accession No: U64828), was amplified and cloned into the EcoRI and Hind III site of pcDNA3.1/myc-His(−)B plasmid (Invitrogen), thereby generating the SRC-1-expression plasmid pcDNA3.1-SRC-1. Wild-type mCAR or mCART350M was co-transfected with or without the SRC-1-expression plasmid (0.1 μg) into HepG2 cells.
The KN-62 repression was examined with and without the co-expression of SRC-1 (EXAMPLE 3).

[2] = system: chimeric receptors mh159, mh224, mh315, mh345; experiment: luciferase reporter assay in HepG2 cells, chimeric receptors within the LBD; assay type: cell-based, mouse/human
hCAR = biological target: T3, hCAR (Homo sapiens, UniProt Q14994); conditions: Kawamoto et al. 2000; cited from earlier work
T3 construct: expressed in transfected cells; host or cells: HepG2
T3 sequence (Q14994 1-348 isoform Q14994-2): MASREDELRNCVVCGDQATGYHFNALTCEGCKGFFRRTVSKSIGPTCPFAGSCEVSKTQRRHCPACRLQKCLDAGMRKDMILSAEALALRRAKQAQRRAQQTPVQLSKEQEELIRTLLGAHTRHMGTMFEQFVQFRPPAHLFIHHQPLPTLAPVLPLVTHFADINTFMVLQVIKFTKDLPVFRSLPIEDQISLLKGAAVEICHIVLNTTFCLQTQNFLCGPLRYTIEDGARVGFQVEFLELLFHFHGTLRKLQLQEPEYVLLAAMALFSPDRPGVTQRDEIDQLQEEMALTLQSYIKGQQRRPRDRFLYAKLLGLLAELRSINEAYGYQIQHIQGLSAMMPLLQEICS

[3] = system: chimeric receptors hmm and hhm; experiment: luciferase reporter assay in HepG2 cells, chimeric receptors with mouse LBD; assay type: cell-based, mouse/human; conditions: chimeras hmm and hhm
mCAR [4] = biological target: T2, mCAR; conditions: Kawamoto et al. 2000; cited from earlier work
[5] = biological target: wild-type mouse CAR (mCAR; nuclear orphan receptor constitutively active receptor / constitutive androstane receptor) (mouse); experiment: cell-based or functional assay
[6] = biological target: mCAR T350M mutant (mouse); experiment: cell-based or functional assay
mCAR L352A = biological target: T4, mCAR L352A (Mus musculus, UniProt O35627, L352A); experiment: luciferase reporter gene activation assay (PBREM) in HepG2 cells, mCAR L352A mutant; assay type: cell-based; conditions: only in the presence of exogenous SRC-1
T4 construct: mCAR and hCAR expression vectors were constructed by cloning an entire mCAR; expressed in transfected cells; host or cells: HepG2
T4 sequence (O35627 1-358 L352A): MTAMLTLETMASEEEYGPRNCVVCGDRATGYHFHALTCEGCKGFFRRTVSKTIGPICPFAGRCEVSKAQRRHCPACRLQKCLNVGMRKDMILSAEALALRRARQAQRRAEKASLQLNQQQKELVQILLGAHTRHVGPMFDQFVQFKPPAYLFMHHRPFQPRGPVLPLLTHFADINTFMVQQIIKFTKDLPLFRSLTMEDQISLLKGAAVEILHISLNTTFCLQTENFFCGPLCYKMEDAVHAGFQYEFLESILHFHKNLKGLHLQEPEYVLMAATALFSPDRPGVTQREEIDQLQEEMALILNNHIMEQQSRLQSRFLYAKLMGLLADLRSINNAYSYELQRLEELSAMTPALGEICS
Source text: To examine the role of Leu352 in mCAR activity, site-directed mutagenesis was used as described in EXAMPLES 2 and 6.

[7] = system: PB-responsive enhancer module (PBREM) luciferase reporter; experiment: constitutive activity of mutated CAR in luciferase reporter gene activation assay in HepG2 cells; conditions: mCAR mutants versus mCAR

C[C@]12CC[C@H]3[C@@H](CCC4=CC(=O)CC[C@@]43C)[C@@H]1CC[C@@H]2O [testosterone]
repression of mCART350M activity (mCART350M; HepG2 cells): not the T350M mutant
repression of mCAR activity (luciferase reporter) (mCAR [1]; wild-type mCAR, HepG2 cells, 24 hours treatment): repressed

CC(=O)[C@H]1CC[C@H]2[C@@H]3CCC4=CC(=O)CC[C@]4(C)[C@H]3CC[C@]12C [progesterone]
repression of chimeric receptor activity [2]: None of these chimeric receptors was repressed

CN([C@@H](Cc1ccc(OS(=O)(=O)c2cccc3cnccc23)cc1)C(=O)N1CCN(c2ccccc2)CC1)S(=O)(=O)c1cccc2cnccc12 [KN-62]
repression of receptor activity by KN-62 (mCART350M; mCART350M, KN-62 0.1-10 μM, with and without SRC-1): similarly repressed
repression of constitutive activity of hCAR (hCAR): not hCAR
repression of chimera activity [3]: 2-4 fold
repression of constitutive activity of mCAR (mCAR [4]): represses
degree of repression (mCAR [1]; in the absence of SRC-1): 20-30%
degree of repression (mCAR [1]; in the presence of co-expressed SRC-1): 80%
repression of receptor activity by KN-62 (mCAR [1]; wild-type mCAR, KN-62 0.1-10 μM, with and without SRC-1): similarly repressed

mouse steroid receptor co-activator 1 (SRC-1), amino acid residues 633 to 1450 (from UniProt P70365 633-1447)
trans-activation activity (NR1-luciferase reporter gene activity in co-transfected HepG2 cells, relative to DMSO-treated cells) [5]: 3 to 4 fold
trans-activation activity (NR1-luciferase reporter gene activity in co-transfected HepG2 cells, relative to DMSO-treated cells) [6]: 3 to 4 fold

CN(C)CCCN1c2ccccc2Sc2ccc(Cl)cc21 [chloropromazine]
activation of L352A mutant (mCAR L352A): activated

B1: SRC-1: co-activator steroid receptor co-activator 1, mouse residues 633 to 1450 expressed from pcDNA3.1-SRC-1 (protein)
chain: TSHKLVQLLTTTAEQQLRHADIDTSCKDVLSCTGTSSSASSNPSGGTCPSSHSSLTERHKILHRLLQEGSPSDITTLSVEPEKKDSVPASTAVSVSGQSQGSASIKLELDAAKKKESKDHQLLRYLLDKDEKDLRSTPNLCLDDVKVKVEKKEQMDPCNTNPTPMTKPAPEEVKLESQSQFTADLDQFDQLLPTLEKAAQLPSLCETDRMDGAVTGVSIKAEVLPASLQPTTARAAPRLSRLPELELEAIDNQFGQPGAGDQIPWANNTLTTINQNKPEDQCISSQLDELLCPPTTVEGRNDEKALLEQLVSFLSGKDETELAELDRALGIDKLVQGGGLDVLSERFPPQQATPPLMMEDRPTLYSQPYSSPSPTAGLSGPFQGMVRQKPSLGAMPVQVTPPRGTFSPNMGMQPRQTLNRPPAAPNQLRLQLQQRLQGQQQLMHQNRQAILNQFAANAPVGMNMRSGMQQQITPQPPLNAQMLAQRQRELYSQQHRQRQIIQQQRAMLMRHQSFGNNIPPSSGLPVQMGTPRLPQGAPQQFPYPPNYGTNPGTPPASTSPFSQLAANPEASLATRSSMVNRGMAGNMGGQFGAGISPQMQQNVFQYPGPGLVPQGEATFAPSLSPGSSMVPMPVPPPQSSLLQQTPPTSGYQSPDMKAWQQGTMGNNNVFSQAVQSQPAPAQPGVYNNMSITVSMAGGNANIQNMNPMMGQMQMSSLQMPGMNTVCSEQMNDPALRHTGLYCNQLSSTDLLKTDADGNQQVQQVQVFADVQCTVNLVGGDPYLNQPGPLGTQKPTSGPQTPQAQQKSLLQQLLTE
increase of trans-activation activity by co-expression (mCART350M; mCART350M, relative to DMSO-treated cells): 3- to 4 fold
increase of trans-activation activity by co-expression (mCAR [1]; wild-type mCAR, relative to DMSO-treated cells): 3- to 4 fold

B2: T176V: mCAR with single mutation of Thr176 to valine (protein, UniProt O35627 1-358, looked up, variant T176V)
Nuclear receptor subfamily 1 …: MTAMLTLETMASEEEYGPRNCVVCGDRATGYHFHALTCEGCKGFFRRTVSKTIGPICPFAGRCEVSKAQRRHCPACRLQKCLNVGMRKDMILSAEALALRRARQAQRRAEKASLQLNQQQKELVQILLGAHTRHVGPMFDQFVQFKPPAYLFMHHRPFQPRGPVLPLLTHFADINVFMVQQIIKFTKDLPLFRSLTMEDQISLLKGAAVEILHISLNTTFCLQTENFFCGPLCYKMEDAVHAGFQYEFLESILHFHKNLKGLHLQEPEYVLMAATALFSPDRPGVTQREEIDQLQEEMALILNNHIMEQQSRLQSRFLYAKLMGLLADLRSINNAYSYELQRLEELSAMTPLLGEICS
constitutive activity of mCAR [7]: decreased

B3: T176L: mCAR with single mutation of Thr176 to leucine (protein, UniProt O35627 1-358, looked up, variant T176L)
Nuclear receptor subfamily 1 …: MTAMLTLETMASEEEYGPRNCVVCGDRATGYHFHALTCEGCKGFFRRTVSKTIGPICPFAGRCEVSKAQRRHCPACRLQKCLNVGMRKDMILSAEALALRRARQAQRRAEKASLQLNQQQKELVQILLGAHTRHVGPMFDQFVQFKPPAYLFMHHRPFQPRGPVLPLLTHFADINLFMVQQIIKFTKDLPLFRSLTMEDQISLLKGAAVEILHISLNTTFCLQTENFFCGPLCYKMEDAVHAGFQYEFLESILHFHKNLKGLHLQEPEYVLMAATALFSPDRPGVTQREEIDQLQEEMALILNNHIMEQQSRLQSRFLYAKLMGLLADLRSINNAYSYELQRLEELSAMTPLLGEICS
constitutive activity of mCAR [7]: decreased

B4: L352A: mCAR with Ala substitution of Leu352 (protein, UniProt O35627 1-358, looked up, variant L352A)
Nuclear receptor subfamily 1 …: MTAMLTLETMASEEEYGPRNCVVCGDRATGYHFHALTCEGCKGFFRRTVSKTIGPICPFAGRCEVSKAQRRHCPACRLQKCLNVGMRKDMILSAEALALRRARQAQRRAEKASLQLNQQQKELVQILLGAHTRHVGPMFDQFVQFKPPAYLFMHHRPFQPRGPVLPLLTHFADINTFMVQQIIKFTKDLPLFRSLTMEDQISLLKGAAVEILHISLNTTFCLQTENFFCGPLCYKMEDAVHAGFQYEFLESILHFHKNLKGLHLQEPEYVLMAATALFSPDRPGVTQREEIDQLQEEMALILNNHIMEQQSRLQSRFLYAKLMGLLADLRSINNAYSYELQRLEELSAMTPALGEICS
constitutive activity of mCAR [7]: decreased
